The text below walks through data of paper PMC3967794 (Journal of medicinal chemistry, 2014).

The conditions of series [1]: in the presence of NADPH.
Another series addresses T1, 12-LOX (Homo sapiens, UniProt P18054).
T1 sequence (P18054 1-663): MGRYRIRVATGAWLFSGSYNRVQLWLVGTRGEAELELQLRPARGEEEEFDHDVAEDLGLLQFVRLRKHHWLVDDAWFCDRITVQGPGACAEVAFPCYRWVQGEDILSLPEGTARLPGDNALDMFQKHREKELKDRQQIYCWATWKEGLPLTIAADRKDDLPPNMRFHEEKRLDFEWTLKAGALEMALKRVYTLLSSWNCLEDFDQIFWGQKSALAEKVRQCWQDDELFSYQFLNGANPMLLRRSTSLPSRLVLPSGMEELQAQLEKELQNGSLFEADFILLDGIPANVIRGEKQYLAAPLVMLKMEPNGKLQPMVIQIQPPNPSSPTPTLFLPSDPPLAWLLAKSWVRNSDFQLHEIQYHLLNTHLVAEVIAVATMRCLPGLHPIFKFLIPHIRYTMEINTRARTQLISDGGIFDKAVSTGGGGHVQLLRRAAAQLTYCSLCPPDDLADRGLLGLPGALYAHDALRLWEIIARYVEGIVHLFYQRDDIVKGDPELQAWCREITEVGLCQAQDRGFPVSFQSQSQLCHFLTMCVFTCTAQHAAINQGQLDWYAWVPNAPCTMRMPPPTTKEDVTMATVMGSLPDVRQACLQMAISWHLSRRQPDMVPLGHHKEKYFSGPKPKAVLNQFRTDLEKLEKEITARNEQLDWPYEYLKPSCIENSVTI
The series can be described thus: Steady-state inhibition kinetics. Format: biochemical.

The conditions of series [2]: pH 7.4, 48 h.
The next series in a line: in vivo. The settings on record: male, CD1, mouse, po, 30 mg/kg.
In series [3] the target is T2, human platelet 12-lipoxygenase (12-LOX) (Homo sapiens, UniProt P18054).
T2 sequence (P18054 1-663): T1 sequence (P18054 1-663)
Description: Lipoxygenase UV–vis cuvette-based assay, 12-LOX. Format: biochemical.

SMILES strings stand for the structures.

On to `COc1cccc(CNc2ccc(S(=O)(=O)Nc3nc4ccccc4o3)cc2)c1O` [Compound 36], for which the “microsomal stability T1/2 (rat)” value in series [1] is recorded as >30 (rat) min. Besides, the mode of inhibition result at 12-LOX is listed as “mixed inhibitors”. Further, in “PBS buffer”, the “PBS buffer (pH 7.4) solubility” value was above 60 µg/mL. Further, in series [2], the “PBS buffer (pH 7.4) stability at 48 h” value was determined as 100%.

Usually AUC(0-inf) stands for the area under the concentration-time curve extrapolated to infinity. Take `COc1cccc(CNc2ccc(S(=O)(=O)Nc3nc4ccccc4s3)cc2)c1O` [Compound 35, N-(Benzo[d]thiazol-2-yl)-4-((2-hydroxy-3-methoxybenzyl)-amino)benzenesulfonamide]: in “in vivo”, the AUC(0-inf) came to 38 µM·h. The “PBS buffer (pH 7.4) solubility” value in “PBS buffer” is below 5 µg/mL. Moreover, the “concentration at which calcium mobilization is reduced significantly” value in the series with human platelets worked out at 250 nM.

For `Nc1ccccc1CNc1ccc(S(=O)(=O)Nc2nccs2)cc1` [Compound 13], in series [3], the “12-LOX inhibitory activity (in words)” value was “negated all 12-LOX inhibitory activity”.

Take `O=S(=O)(Nc1nccs1)c1ccc(NCc2ccccc2O)cc1` [Compound 9]: the “12-LOX inhibitory activity (in words)” value in series [3] is recorded as “complete loss of activity”.

On to `O=S(=O)(Nc1nccs1)c1ccc(NCc2ccccc2)cc1` [Compound 8], for which, in series [3], the “12-LOX inhibitory activity (in words)” value is listed as “complete loss of activity”.
